Experimental data reported in PMC7279487, “Dual Target Ligands with 4-tert-Butylphenoxy Scaffold as Histamine H3 Receptor Antagonists and Monoamine Oxidase B Inhibitors” (International Journal of Molecular Sciences, 2020).

Assays:
hMAO B = biological target: T1, hMAO B (Homo sapiens, UniProt P27338); assay: hMAO B kinetic studies (Michaelis-Menten, Lineweaver-Burk); assay type: biochemical
T1 construct: purchased Sigma Aldrich M7441
T1 sequence (P27338 1-520): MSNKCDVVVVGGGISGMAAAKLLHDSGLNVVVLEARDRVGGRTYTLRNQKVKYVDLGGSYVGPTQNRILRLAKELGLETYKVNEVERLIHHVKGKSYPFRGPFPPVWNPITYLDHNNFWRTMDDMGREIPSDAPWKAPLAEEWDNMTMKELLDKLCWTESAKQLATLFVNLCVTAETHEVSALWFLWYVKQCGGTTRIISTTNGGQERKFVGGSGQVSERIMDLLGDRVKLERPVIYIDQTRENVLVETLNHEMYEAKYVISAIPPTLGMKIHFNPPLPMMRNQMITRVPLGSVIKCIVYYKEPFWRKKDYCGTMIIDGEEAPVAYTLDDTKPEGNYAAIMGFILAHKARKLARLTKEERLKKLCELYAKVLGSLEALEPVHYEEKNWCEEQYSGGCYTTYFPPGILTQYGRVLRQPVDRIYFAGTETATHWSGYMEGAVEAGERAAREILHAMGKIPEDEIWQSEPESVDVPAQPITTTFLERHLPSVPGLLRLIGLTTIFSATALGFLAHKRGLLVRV
Description: Results from the kinetic experiment were used for determination of Michaelis–Menten curves (Figure 4A,C). […] From Michaelis–Menten curves, Vmax and KM values were fitted (Table 2). For both compounds, Vmax values decreased curvilinearly and KM values increased curvilinearly with the increased inhibitor concentrations.
The mode of the inhibition was tested according to the standard procedure described in Reversibility Studies using different concentrations of the substrate. […] Substrate was used in six concentrations: […], 0.1 mM, 0.5 mM, 1 mM, 1.5 mM, and 2 mM. After the experiment, velocities were calculated and put on the graph (y-axis) against the concentration of the substrate (x-axis). From the Michaelis–Menten plot Vmax, KM, and α values were calculated for different concentrations of the inhibitor. Double-reciprocal plot (Lineweaver–Burk plot) were prepared to display the data.
The α values for different modes of reversible inhibition as well as their diagnostic signature on […]
The α value for compound 9 was calculated by GraphPad Prism software from the nonlinear regression curves using following equation for mixed- […]
v = Vmax*[S] / [S]*(1+ [I]/ αKi) + KM*(1+ [I]/Ki) (1) v – velocity of enzyme reaction. Vmax - maximum velocity (at infinite substrate concentration); Ki – dissociation constant for Enzyme-Inhibitor complex (in the enzymology literature other symbols can be used such as: Ki, Kii , KEI etc.); αKi – dissociation constant for Enzyme-Substrate-Inhibitor complex (in the literature also under the symbols: Ki’, Kis and KES); KM – Michaelis-Menten constant; [I]– concentration of the inhibitor; [S] – concentration of the substrate [Ref S1].
Table S1. Relation between inhibition modality, α value, and diagnostic signature on the double-reciprocal plots (i.e Lineweaver-Burk plot) [S2].
α Inhibition modality Diagnostic signature on […]
α = 1 (inhibitor binds to free enzyme lines converge at the x-axis and enzyme-substrate complex
(inhibitor can bind to free lines converge to the left of the α > 1 enzyme and enzyme-substrate y-axis and above the x-axis complex unequally), inhibitor’s affinity is higher for free enzyme
(inhibitor can bind to free
α < 1 enzyme and enzyme-substrate lines converge to the left of the complex unequally), inhibitor’s y-axis and below the x-axis affinity is higher for the enzyme- […]
α → ∞ (inhibitor and substrate compete lines converge at the y-axis for the same site of binding) […]
α → 0 and α > 0 (inhibitor binds only to the parallel lines

HEK-293 cells = assay: toxicity in HEK-293 cells (EZ4U); assay type: cell-based, human; settings: 48 h incubation; EZ4U
Description: (§1) The used reference cytostatic drug doxorubicin (DX) decreased cell viability <50% under the same conditions at very low concentrations of 0.2 and 0.05 µM. […] Oxidative damage was induced by very high toxic levels of hydrogen peroxide (H2O2; 300 µM), the popular cell model for PD research, in neuroblastoma SH-SY5Y cell line. […] Salsolinol (SAL) was used at a concentration of 50 µM as the reference compound with the proven neuroprotection activity.
The HEK-293 cells were seeded at a concentration of 1.5 × 10^4 cells/well in 200 μL culture medium and incubated for 24 h at 37 °C and 5% CO2. […] Then, 25 μL EZ4U labelling mixture (Biomedica, Vienna, Austria) was added and the cells were incubated for 2 h. The spectrophotometric absorbance of the samples was measured using a microplate reader (EnSpire, PerkinElmer, Waltham, MA, USA) at 492 nm. All measurements were performed in triplicate, and results are shown as mean ± SD.

[1] = system: neuroblastoma SH-SY5Y cells; assay: neuroprotection in H2O2-treated SH-SY5Y cells (MTS); assay type: cell-based; settings: H2O2 300 µM, 24 h
Description: as §1
(§2) SH-SY5Y cells were seeded in microplate at a concentration of 2.5 × 10^4 cells/well in 100 μL culture medium and cultured for 24 h at 37 C and 5% CO2 to reach 70% confluence. […] (R,S)-salsolinol (purity ≥ 99%) was obtained from Cayman Chemical (Ann Arbor, MI, USA). Next, H2O2 was added at final concentration 300 μM and the cells were placed into the incubator. After 24 h of compounds co-incubation with H2O2, the CellTiter 96®AQueous Non-Radioactive Cell Proliferation Assay (MTS) labeling mixture was added to each well, and the microplates were incubated under the same conditions for 5 h. The absorbance was measured using a microplate reader EnSpire (PerkinElmer, Waltham, MA USA) at 490 nm. All measurements were performed in triplicate, and results are shown as mean ± SD.

[2] = system: neuroblastoma SH-SY5Y cells; assay: toxicity against SH-SY5Y cells; assay type: cell-based; settings: 10 and 50 µM
Description: as §1, §2

CC(C)(C)c1ccc(OCCCN2CCCCC2)cc1 [DL76, 1-(3-(4-tert-butylphenoxy)propyl)piperidine]
constant α (hMAO B; calculated by GraphPad Prism from nonlinear regression, mixed-model inhibition): 4.6
mode of hMAO B inhibition (hMAO B; from Vmax and KM behaviour and Lineweaver-Burk plot): mixed mode inhibition
Vmax (RFU/min) (hMAO B; inhibitor concentration 7 nM): 1628 RFU/min
Vmax (RFU/min) (hMAO B; inhibitor concentration 48 nM): 1165 RFU/min
Vmax (RFU/min) (hMAO B; inhibitor concentration 164 nM): 726.3 RFU/min
HEK-293 cell viability (HEK-293 cells): observed only at the highest doses of 125 µM and 250 µM
cell survival of H2O2-damaged SH-SY5Y cells (neuroprotection) ([1]; 10 µM): no increase of cell survival
cell survival of H2O2-damaged SH-SY5Y cells (neuroprotection) ([1]; 50 µM): no increase of cell survival
toxic effect against SH-SY5Y cells [2]: no toxic effect
